One series concerns Ras. The series can be described thus: steady-state Ras levels, Western immunoblotting. The class given is cell-based, human. The note with it: 75 μM FTS, 48 hours, all cell lines, P<0.05. As to the method: Unless otherwise indicated, cells were lysed 48 hours after being treated with lysis buffer, as described in Haklai, et al., supra. […] Protein bands were visualized by ECL and quantified by densitometry with Image Master VDS-CL (Amersham) using TINA 2.0 software (Ray Tests). To obtain reliable comparisons between replicated experiments for statistical analysis, a standardization procedure was used, in which the density of each given protein band as recorded with its specific Ab, was normalized. […] The standard average density was defined as 1.0, and each of the individually determined bands was related to this value. […] Actin cytoskeletal elements were labeled with rhodamine-phalloidin, and digital fluorescence images were collected on a Zeiss LSM 510 confocal microscope fitted with fluorescein and rhodamine filters, as described in Gana-Weisz, M., et al., supra. […]
(In general: A western blot detects proteins with antibodies after separation by electrophoresis.)

The subject of another series is RalA-GTP. Nature of the series: steady-state RalA-GTP, GST-RalBD pulldown assay. The class given is cell-based, human. The protocol:
(§1) Unless otherwise indicated, cells were lysed 48 hours after being treated with lysis buffer, as described in Haklai, et al., supra. […] Protein bands were visualized by ECL and quantified by densitometry with Image Master VDS-CL (Amersham) using TINA 2.0 software (Ray Tests). To obtain reliable comparisons between replicated experiments for statistical analysis, a standardization procedure was used, in which the density of each given protein band as recorded with its specific Ab, was normalized. […] The standard average density was defined as 1.0, and each of the individually determined bands was related to this value. […] Actin cytoskeletal elements were labeled with rhodamine-phalloidin, and digital fluorescence images were collected on a Zeiss LSM 510 confocal microscope fitted with fluorescein and rhodamine filters, as described in Gana-Weisz, M., et al., supra.
(§2) Next, to determine whether down-regulation of active Ras by FTS was accompanied by inhibition of Ras signaling, the effect of FTS on steady-state levels of phospho-ERK, phospho-Akt, and RalA-GTP as read-outs of the three prominent Ras pathways, Ras/Raf/MEK/ERK, Ras/PI3K/Akt, and Ras/RalGEF/RalA, respectively, was examined. […]

For series [1] the following is noted: human, doses up to 1800 mg/day; cited from earlier work.
In another series the test system is phospho-Akt. Nature of the series: steady-state phospho-Akt, Western immunoblotting. The class given is cell-based, human. As to the method: as §1, §2
The test system of the next series is STS26T cells. The series can be described thus: soft agar assay, anchorage-independent growth. The note with it: Homo sapiens, STS-26T, 336 h, 2 weeks, read-out: inhibition of colony formation. In kind it is cell-based. The protocol:
(§3) Noble agars (2% and 0.6%; Difco, Sparks, Md.) were prepared in double-distilled water and autoclaved. The 2% agar was melted and mixed with medium (DMEM X2 with 20% FCS, 100 μg/mL penicillin, and […]) and the mixture (50 μL) was placed in 96-well plates to provide the base agar (at a final concentration of 1%).
(§4) To determine whether FTS inhibited the transforming activity associated with NF-1-deficiency and to determine the effect of FTS on anchorage-independent growth, soft agar assays were performed. ST88-14 and STS26T cells were plated in soft agar and then treated with 0.1% DMSO as a control or with FTS (25 μM, 50 μM, or 75 μM) and grown for 3 weeks or 2 weeks, respectively. […] FTS inhibited colony formation of both cell lines; in the presence of 50 μM FTS, for example, colony formation was inhibited by 60% in STS26T cells and by 57% in ST88-14 cells. In the presence of 75 μM FTS, colony formation was inhibited by 84% and 87% in ST88-14 and STS26T cells, respectively.

The test system of another series is ST88-14 cells. Nature of the series: soft agar assay, anchorage-independent growth. As to conditions: Homo sapiens, 504 h, 3 weeks, read-out: inhibition of colony formation. In kind it is cell-based. As to the method:
as §3, §4

Series [2] relates to total ERK, total Akt, or total RalA. Nature of the series: total ERK, total Akt, total RalA, Western immunoblotting. In kind it is cell-based, human. As to conditions: NF-1 cell lines. The protocol: as §1, §2

One may read the inhibition as how much of the control response was suppressed. Consider `CC(C)=CCC/C(C)=C/CC/C(C)=C/CSc1ccccc1C(=O)O` [FTS, S-farnesylthiosalicylic acid], for which, in the series on Ras, the “reduction in Ras levels” value is listed as 15-30%. The “steady-state RalA-GTP” value in the series with RalA-GTP (all NF-1 cell lines) and in the series on RalA-GTP (non-NF-1 STS26T cells) was “significant reduction” in each case. Besides, in series [1], the dose-limiting toxicities entry is “no dose-limiting toxicities”. In addition, the “steady-state phospho-Akt” value with phospho-Akt (all NF-1 cell lines) is given as “significant reduction”. In the series with phospho-Akt (non-NF-1 STS26T cells, steady state), the “increase in phosphor-Akt” value is 10%-20%. The values for the inhibition at 50 µM in the series on STS26T cells (50 μM FTS) and in the series with ST88-14 cells (50 μM FTS) were 60% and 57%, respectively. Further, the inhibition at 75 µM with STS26T cells (75 μM FTS) is 87%; in the series with ST88-14 cells (75 μM FTS) it was 84%. Besides, the “amounts of total ERK, total Akt, or total RalA” value in series [2] is “did not affect”.

Values taken from patent US20110046223A1, “TREATMENT OF NEUROFIBROMATOSIS” (RAMOT AT TEL-AVIV UNIVERSITY LTD., priority 2006, published 2011).
